# The NIST ThermoML archive (doi:10.1016/j.jct.2016.03.034)
# ± gives the expanded uncertainty stated by the source.
# What was measured:
# [1] = xn = mol fraction of the nth substance listed; conditions: 100 kPa, Liquid, x1 = 1; for viscosity: Capillary tube (Ostwald / Ubbelohde) method; for mass density: Vibrating tube method
# [2] = 101.33 kPa, Liquid; for viscosity: Capillary tube (Ostwald / Ubbelohde) method; for mass density: Vibrating tube method
smiles,measurement,setting,value
CCCCCCCCn1cc[n+](C)c1.O=S(=O)([N-]S(=O)(=O)C(F)(F)F)C(F)(F)F + O=C1CCCO1,viscosity,[1]; 293.15 K,114.86 ± 4.9 mPa·s
same,mass density,[1]; 293.15 K,1324.82 ± 11 kg/m3
same,viscosity,[1]; 298.15 K,88.59 ± 3.7 mPa·s
same,mass density,[1]; 298.15 K,1320.47 ± 11 kg/m3
same,viscosity,[1]; 303.15 K,69.08 ± 2.8 mPa·s
same,mass density,[1]; 303.15 K,1316.05 ± 11 kg/m3
same,viscosity,[1]; 308.15 K,56.43 ± 2.3 mPa·s
same,mass density,[1]; 308.15 K,1311.64 ± 11 kg/m3
same,viscosity,[1]; 313.15 K,45.03 ± 1.8 mPa·s
same,mass density,[1]; 313.15 K,1307.24 ± 10 kg/m3
same,viscosity,[1]; 318.15 K,37.25 ± 1.5 mPa·s
same,mass density,[1]; 318.15 K,1302.85 ± 10 kg/m3
same,viscosity,[1]; 323.15 K,30.83 ± 1.2 mPa·s
same,mass density,[1]; 323.15 K,1298.47 ± 10 kg/m3
CCn1cc[n+](C)c1.O=S(=O)([N-]S(=O)(=O)C(F)(F)F)C(F)(F)F,viscosity,[2]; 293.15 K,37.8 ± 1.5 mPa·s
same,mass density,[2]; 293.15 K,1523.44 ± 12 kg/m3
same,viscosity,[2]; 298.15 K,31.79 ± 1.3 mPa·s
same,mass density,[2]; 298.15 K,1518.3 ± 12 kg/m3
same,viscosity,[2]; 303.15 K,26.84 ± 1.1 mPa·s
same,mass density,[2]; 303.15 K,1513.11 ± 12 kg/m3
same,viscosity,[2]; 308.15 K,22.9 ± 0.9 mPa·s
same,mass density,[2]; 308.15 K,1507.9 ± 12 kg/m3
same,viscosity,[2]; 313.15 K,19.75 ± 0.8 mPa·s
same,mass density,[2]; 313.15 K,1502.68 ± 12 kg/m3
same,viscosity,[2]; 318.15 K,17.05 ± 0.69 mPa·s
same,mass density,[2]; 318.15 K,1497.48 ± 12 kg/m3
same,viscosity,[2]; 323.15 K,15.02 ± 0.61 mPa·s
same,mass density,[2]; 323.15 K,1492.24 ± 12 kg/m3
CCCCCC[n+]1ccn(C)c1.O=S(=O)([N-]S(=O)(=O)C(F)(F)F)C(F)(F)F,viscosity,[2]; 273.15 K,279.26 ± 13 mPa·s
same,mass density,[2]; 273.15 K,1395.43 ± 11 kg/m3
same,mass density,[2]; 278.15 K,1390.66 ± 11 kg/m3
same,viscosity,[2]; 283.15 K,148.8 ± 6.5 mPa·s
same,mass density,[2]; 283.15 K,1386.02 ± 11 kg/m3
same,mass density,[2]; 288.15 K,1381.44 ± 11 kg/m3
same,viscosity,[2]; 293.15 K,87.29 ± 3.6 mPa·s
same,mass density,[2]; 293.15 K,1376.84 ± 11 kg/m3
same,viscosity,[2]; 298.15 K,70.52 ± 2.9 mPa·s
same,mass density,[2]; 298.15 K,1371.81 ± 11 kg/m3
same,viscosity,[2]; 303.15 K,55.92 ± 2.3 mPa·s
same,mass density,[2]; 303.15 K,1367.68 ± 11 kg/m3
same,viscosity,[2]; 308.15 K,47.46 ± 1.9 mPa·s
same,mass density,[2]; 308.15 K,1363.11 ± 11 kg/m3
same,viscosity,[2]; 313.15 K,37.22 ± 1.5 mPa·s
same,mass density,[2]; 313.15 K,1357.51 ± 11 kg/m3
same,viscosity,[2]; 318.15 K,31.35 ± 1.3 mPa·s
same,mass density,[2]; 318.15 K,1352.62 ± 11 kg/m3
same,viscosity,[2]; 323.15 K,25.95 ± 1.1 mPa·s
same,mass density,[2]; 323.15 K,1349.46 ± 11 kg/m3
CCCCCCCCn1cc[n+](C)c1.O=S(=O)([N-]S(=O)(=O)C(F)(F)F)C(F)(F)F,mass density,[2]; 273.15 K,1340.42 ± 11 kg/m3
same,viscosity,[2]; 283.15 K,208.88 ± 9.6 mPa·s
same,mass density,[2]; 283.15 K,1331.26 ± 11 kg/m3
same,viscosity,[2]; 293.15 K,114.86 ± 4.9 mPa·s
same,mass density,[2]; 293.15 K,1324.82 ± 11 kg/m3
same,viscosity,[2]; 298.15 K,88.59 ± 3.7 mPa·s
same,mass density,[2]; 298.15 K,1320.47 ± 11 kg/m3
same,viscosity,[2]; 303.15 K,69.08 ± 2.8 mPa·s
same,mass density,[2]; 303.15 K,1316.05 ± 11 kg/m3
same,viscosity,[2]; 308.15 K,55.38 ± 2.2 mPa·s
same,mass density,[2]; 308.15 K,1311.64 ± 11 kg/m3
same,viscosity,[2]; 313.15 K,45.03 ± 1.8 mPa·s
same,mass density,[2]; 313.15 K,1307.24 ± 10 kg/m3
same,viscosity,[2]; 318.15 K,37.25 ± 1.5 mPa·s
same,mass density,[2]; 318.15 K,1302.85 ± 10 kg/m3
same,viscosity,[2]; 323.15 K,30.83 ± 1.2 mPa·s
same,mass density,[2]; 323.15 K,1298.47 ± 10 kg/m3
CCCCCC[n+]1ccn(C)c1.O=S(=O)([N-]S(=O)(=O)C(F)(F)F)C(F)(F)F + O=C1CCCO1,viscosity,[1]; 293.15 K,87.29 ± 3.6 mPa·s
same,mass density,[1]; 293.15 K,1376.84 ± 11 kg/m3
same,viscosity,[1]; 298.15 K,70.52 ± 2.9 mPa·s
same,mass density,[1]; 298.15 K,1371.81 ± 11 kg/m3
same,viscosity,[1]; 303.15 K,55.92 ± 2.3 mPa·s
same,mass density,[1]; 303.15 K,1367.68 ± 11 kg/m3
same,viscosity,[1]; 308.15 K,47.46 ± 1.9 mPa·s
same,mass density,[1]; 308.15 K,1363.11 ± 11 kg/m3
same,viscosity,[1]; 313.15 K,37.22 ± 1.5 mPa·s
same,mass density,[1]; 313.15 K,1357.51 ± 11 kg/m3
same,viscosity,[1]; 318.15 K,31.35 ± 1.3 mPa·s
same,mass density,[1]; 318.15 K,1352.62 ± 11 kg/m3
same,viscosity,[1]; 323.15 K,25.95 ± 1.1 mPa·s
same,mass density,[1]; 323.15 K,1349.46 ± 11 kg/m3
CCn1cc[n+](C)c1.O=S(=O)([N-]S(=O)(=O)C(F)(F)F)C(F)(F)F + O=C1CCCO1,viscosity,[1]; 293.15 K,37.8 ± 1.5 mPa·s
same,mass density,[1]; 293.15 K,1523.44 ± 12 kg/m3
same,viscosity,[1]; 298.15 K,31.79 ± 1.3 mPa·s
same,mass density,[1]; 298.15 K,1518.3 ± 12 kg/m3
same,viscosity,[1]; 303.15 K,26.84 ± 1.1 mPa·s
same,mass density,[1]; 303.15 K,1513.11 ± 12 kg/m3
same,viscosity,[1]; 308.15 K,22.9 ± 0.93 mPa·s
same,mass density,[1]; 308.15 K,1507.9 ± 12 kg/m3
same,viscosity,[1]; 313.15 K,19.75 ± 0.8 mPa·s
same,mass density,[1]; 313.15 K,1502.68 ± 12 kg/m3
same,viscosity,[1]; 318.15 K,17.05 ± 0.69 mPa·s
same,mass density,[1]; 318.15 K,1497.48 ± 12 kg/m3
same,viscosity,[1]; 323.15 K,15.02 ± 0.61 mPa·s
same,mass density,[1]; 323.15 K,1492.24 ± 12 kg/m3
